Assay results as given in US12570671B2 (BRISTOL-MYERS SQUIBB COMPANY, priority 2020, dated 2026).

Columns and labels:
Ikaros = Ikaros (Homo sapiens, UniProt Q13422+Q96SW2); assay: Helios Cellular Degradation Assay (Ikaros readout); type: cell-based; set-up: endogenous in cells; host or cells: Jurkat; settings: Jurkat cells, 72 h incubation, Ikaros-Alexa488 antibody staining, flow cytometry; read-out: Ikaros Jurkat IC50
Experimental: (§1) Jurkat cells were plated at 80,000 cells/well in 40 μL RPMI+10% FBS in a 384 well cell culture plate prior to using acoustic dispensing technology for adding compound of interest. Cell cultures were incubated for 72 h at 37° C. and 5% C02. In order to facilitate analysis, cell cultures were spun down at 200 rpm for 5 min and the supernatant was discarded. After shaking the plate to dislodge the cell pellet, cells were resuspended in 50 μL of Fixation Buffer (eBioScience FoxP3 buffer set 00-5523-00) for 60 min at room temperature. After centrifuging and discarding the supernatant, cells were permeabilized with 50 μL of Permeabilization buffer (eBioScience FoxP3 buffer set 00-5523-00) for 10 min at room temperature. Following permeabilization, cells were spun down and the supernatant was replaced with 20 μL fluorescently labelled antibodies against Helios, Ikaros and Aiolos or corresponding Isotype controls in 1× Permeabilization buffer (Ikaros-Alexa488 [Biolegend, Cat #368408, 1:50], Helios-PE [CST, Cat #29360, 1:50], Aiolos-Alexa647 [Biolegend, Cat #371106Biolegend, 1:25]) and staining reactions were incubated for 1 h at room temperature; protected from light. Subsequently, 30 μL of 1× Permeabilization buffer was added prior to centrifuging the cells and discarding the supernatant. Stained cells were resuspended in 25 μL of flow cytometry staining buffer (PBS+0.2% BSA) and analyzed using an Intellicyt Ique Plus flow cytometer.

Helios = Helios (Homo sapiens, UniProt Q96SW2+Q9UKS7); assay: Helios Cellular Degradation Assay (Helios readout); type: cell-based; set-up: endogenous in cells; host or cells: Jurkat; settings: Jurkat cells, 72 h incubation, Helios-PE antibody staining, flow cytometry; read-out: Helios Jurkat IC50
Experimental: as §1

Chain of Helios (Q9UKS7 whole entry): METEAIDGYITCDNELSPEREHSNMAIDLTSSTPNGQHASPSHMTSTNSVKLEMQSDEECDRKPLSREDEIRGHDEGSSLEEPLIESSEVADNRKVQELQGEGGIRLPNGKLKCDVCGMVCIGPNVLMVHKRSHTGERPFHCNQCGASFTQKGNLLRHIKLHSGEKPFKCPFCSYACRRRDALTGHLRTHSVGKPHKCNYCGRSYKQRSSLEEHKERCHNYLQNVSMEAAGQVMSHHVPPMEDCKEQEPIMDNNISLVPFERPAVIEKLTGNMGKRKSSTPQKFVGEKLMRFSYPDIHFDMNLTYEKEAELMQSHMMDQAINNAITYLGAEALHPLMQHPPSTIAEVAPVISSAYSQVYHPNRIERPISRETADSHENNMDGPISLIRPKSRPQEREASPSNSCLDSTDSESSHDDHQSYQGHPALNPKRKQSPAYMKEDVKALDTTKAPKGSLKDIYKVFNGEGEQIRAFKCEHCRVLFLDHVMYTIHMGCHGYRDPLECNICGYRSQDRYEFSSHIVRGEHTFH
Chain of Helios (Q96SW2 whole entry): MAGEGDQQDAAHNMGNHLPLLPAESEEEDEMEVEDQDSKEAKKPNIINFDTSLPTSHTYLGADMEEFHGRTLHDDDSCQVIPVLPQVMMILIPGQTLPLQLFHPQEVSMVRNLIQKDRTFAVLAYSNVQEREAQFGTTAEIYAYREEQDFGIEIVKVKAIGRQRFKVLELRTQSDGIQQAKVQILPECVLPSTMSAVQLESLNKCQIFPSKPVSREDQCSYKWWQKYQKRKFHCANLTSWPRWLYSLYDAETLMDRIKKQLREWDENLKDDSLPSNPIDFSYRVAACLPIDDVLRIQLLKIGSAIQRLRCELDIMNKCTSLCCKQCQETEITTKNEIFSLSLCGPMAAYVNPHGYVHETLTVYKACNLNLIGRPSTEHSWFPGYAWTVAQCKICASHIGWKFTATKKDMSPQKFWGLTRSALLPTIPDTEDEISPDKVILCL
Chain of Helios (Q16531 whole entry partner): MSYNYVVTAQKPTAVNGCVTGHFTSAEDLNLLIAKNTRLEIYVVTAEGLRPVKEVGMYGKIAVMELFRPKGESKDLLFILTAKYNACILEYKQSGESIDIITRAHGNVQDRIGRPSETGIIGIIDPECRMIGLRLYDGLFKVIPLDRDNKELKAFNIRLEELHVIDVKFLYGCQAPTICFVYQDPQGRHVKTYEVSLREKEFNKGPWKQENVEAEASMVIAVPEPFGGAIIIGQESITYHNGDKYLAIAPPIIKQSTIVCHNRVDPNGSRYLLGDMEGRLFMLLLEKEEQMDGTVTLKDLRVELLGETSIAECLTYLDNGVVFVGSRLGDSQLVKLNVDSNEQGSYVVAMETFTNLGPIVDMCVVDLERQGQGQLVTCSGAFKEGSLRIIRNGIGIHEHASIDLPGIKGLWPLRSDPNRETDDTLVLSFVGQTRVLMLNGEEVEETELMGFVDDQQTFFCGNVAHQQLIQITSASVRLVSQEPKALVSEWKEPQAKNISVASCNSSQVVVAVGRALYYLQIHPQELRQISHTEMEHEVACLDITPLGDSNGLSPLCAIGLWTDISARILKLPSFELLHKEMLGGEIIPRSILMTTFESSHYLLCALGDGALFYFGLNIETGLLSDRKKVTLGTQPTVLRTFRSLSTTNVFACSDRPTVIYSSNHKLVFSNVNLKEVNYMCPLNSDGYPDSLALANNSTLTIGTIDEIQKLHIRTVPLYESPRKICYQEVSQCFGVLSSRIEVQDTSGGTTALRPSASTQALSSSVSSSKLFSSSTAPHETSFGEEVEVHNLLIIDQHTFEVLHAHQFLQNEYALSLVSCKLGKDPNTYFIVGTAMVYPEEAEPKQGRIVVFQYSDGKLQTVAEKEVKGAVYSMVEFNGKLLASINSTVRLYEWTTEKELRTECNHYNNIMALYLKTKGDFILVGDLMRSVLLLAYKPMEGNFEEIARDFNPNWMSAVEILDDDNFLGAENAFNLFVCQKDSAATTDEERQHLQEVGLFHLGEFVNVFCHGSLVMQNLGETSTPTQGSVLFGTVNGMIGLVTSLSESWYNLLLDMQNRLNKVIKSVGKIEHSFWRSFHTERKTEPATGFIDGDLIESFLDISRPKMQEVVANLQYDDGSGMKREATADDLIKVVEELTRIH
Chain of Ikaros (Q13422 whole entry): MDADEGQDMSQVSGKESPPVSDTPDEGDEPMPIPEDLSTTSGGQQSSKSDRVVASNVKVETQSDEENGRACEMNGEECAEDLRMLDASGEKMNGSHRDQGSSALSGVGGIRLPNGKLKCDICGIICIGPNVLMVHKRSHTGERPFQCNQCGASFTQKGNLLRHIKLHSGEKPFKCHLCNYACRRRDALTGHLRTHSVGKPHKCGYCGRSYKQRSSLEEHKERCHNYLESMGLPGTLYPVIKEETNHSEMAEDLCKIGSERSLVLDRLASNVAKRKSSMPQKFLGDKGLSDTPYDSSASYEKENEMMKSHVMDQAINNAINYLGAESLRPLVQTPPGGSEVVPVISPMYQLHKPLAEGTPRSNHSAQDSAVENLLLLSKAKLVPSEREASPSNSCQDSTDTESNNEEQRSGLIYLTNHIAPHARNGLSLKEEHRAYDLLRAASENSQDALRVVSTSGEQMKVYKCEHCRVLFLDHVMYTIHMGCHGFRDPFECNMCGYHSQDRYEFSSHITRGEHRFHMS
Chain of Ikaros (Q96SW2 whole entry): as the sequence (Q96SW2 whole entry) above
Chain of Ikaros (Q16531 whole entry partner): as the sequence (Q16531 whole entry partner) above

| SMILES | DC50 (Ikaros) [nM] | DC50 (Helios) [nM] |
| --- | --- | --- |
| CC(=O)N1CCN(c2cc(N)nc(-c3ccc4c(c3)CN(C3CCC(=O)NC3=O)C4=O)c2)CC1 (centres unmarked) [Example 186, 3-(5-(4-(4-acetylpiperazin-1-yl)-6-aminopyridin-2-yl)-1-oxoisoindolin-2-yl)piperidine-2,6-dione] | ≥ 10000 | ≥ 10000 |
| O=C1CCC(N2Cc3cc(-c4nccc(-c5ccccc5)n4)ccc3C2=O)C(=O)N1 (centres unmarked) [Example 71, 3-(1-oxo-5-(4-phenylpyrimidin-2-yl)isoindolin-2-yl)piperidine-2,6-dione] | > 20000 | 75 |
| CC(=O)N1CCN(c2nc(-c3ccc4c(c3)CN(C3CCC(=O)NC3=O)C4=O)nc3ncccc23)CC1 (centres unmarked) [Example 55, 3-(5-(4-(4-acetylpiperazin-1-yl)pyrido[2,3-d]pyrimidin-2-yl)-1-oxoisoindolin-2-yl)piperidine-2,6-dione] | 8100 | 1000 |
| Nc1ccc(C2CC2)c(-c2ccc3c(c2)CN(C2CCC(=O)NC2=O)C3=O)n1 (centres unmarked) [Example 132, 3-[5-(6-amino-3-cyclopropylpyridin-2-yl)-1-oxo-2,3-dihydro-1H-isoindol-2-yl]piperidine-2,6-dione] | ≥ 20000 | 20 |
| O=C1CCC(N2Cc3cc(-c4ccc5cc(O)ccc5n4)ccc3C2=O)C(=O)N1 (centres unmarked) [Example 40, 3-[5-(6-hydroxyquinolin-2-yl)-1-oxo-2,3-dihydro-1H-isoindol-2-yl]piperidine-2,6-dione] | > 20000 | 19 |
| O=C1CC[C@H](N2Cc3cc(-c4ccc5cccnc5n4)ccc3C2=O)C(=O)N1 [Example 122, (3S)-3-[5-(1,8-naphthyridin-2-yl)-1-oxo-2,3-dihydro-1H-isoindol-2-yl]piperidine-2,6-dione] | ≥ 20000 | 50 |
| Nc1cc2cccnc2c(-c2ccc3c(c2)CN(C2CCC(=O)NC2=O)C3=O)n1 (centres unmarked) [Example 53, 3-[5-(6-Amino-1,7-naphthyridin-8-yl)-1-oxo-2,3-dihydro-1H-isoindol-2-yl]piperidine-2,6-dione] | > 20000 | 85 |
| O=C1CCC(N2Cc3cc(-c4ncc(OCc5ccccc5)c5ccccc45)ccc3C2=O)C(=O)N1 (centres unmarked) [Example 105, 3-(5-(4-(benzyloxy)isoquinolin-1-yl)-1-oxoisoindolin-2-yl)piperidine-2,6-dione] | ≥ 20000 | 140 |
| Cc1ccc2c(-c3ccc4c(c3)CN(C3CCC(=O)NC3=O)C4=O)nccc2c1 (centres unmarked) [Example 23, 3-[5-(6-methylisoquinolin-1-yl)-1-oxo-2,3-dihydro-1H-isoindol-2-yl]piperidine-2,6-dione] | 130 | 6 |
| N#Cc1nc(-c2ccc3c(c2)CN([C@H]2CCC(=O)NC2=O)C3=O)cc2ccccc12 [Example 125, 3-{2-[(3 S)-2,6-dioxopiperidin-3-yl]-1-oxo-2,3-dihydro-1H-isoindol-5-yl}isoquinoline-1-carbonitrile] | ≥ 20000 | 40 |
| O=C1CCC(N2Cc3cc(-c4nc5ccccc5nc4Cl)ccc3C2=O)C(=O)N1 (centres unmarked) [Example 93, 3-(5-(3-chloroquinoxalin-2-yl)-1-oxoisoindolin-2-yl)piperidine-2,6-dione] | ≥ 20000 | 17100 |
| COc1cc2nc(-c3ccc4c(c3)CN(C3CCC(=O)NC3=O)C4=O)nc(N)c2cc1OC (centres unmarked) [Example 16, 3-[5-(4-amino-6,7-dimethoxyquinazolin-2-yl)-1-oxo-2,3-dihydro-1H-isoindol-2-yl]piperidine-2,6-dione] | > 20000 | 30 |
| CC(C)c1cc(-c2ccc3c(c2)CN(C2CCC(=O)NC2=O)C3=O)nc(N)c1C#N (centres unmarked) [Example 178, 2-amino-6-(2-(2,6-dioxopiperidin-3-yl)-1-oxoisoindolin-5-yl)-4-isopropylnicotinonitrile] | ≥ 10000 | 70 |
| N#CCc1ccnc(-c2ccc3c(c2)CN(C2CCC(=O)NC2=O)C3=O)c1 (centres unmarked) [Example 111, 2-(2-(2-(2,6-dioxopiperidin-3-yl)-1-oxoisoindolin-5-yl)pyridin-4-yl)acetonitrile] | ≥ 10000 | 930 |
| CCC(C)Nc1nc2ccc(-c3ccc4c(c3)CN(C3CCC(=O)NC3=O)C4=O)nc2s1 (centres unmarked) [Example 10, 3-(5-{2-[(butan-2-yl)amino]-[1,3]thiazolo[5,4-b]pyridin-5-yl}-1-oxo-2,3-dihydro-1H-isoindol-2-yl)piperidine-2,6-dione] | > 20000 | 100 |
| Cc1cc(N)nc(-c2ccc3c(c2)CN(C2CCC(=O)NC2=O)C3=O)c1 (centres unmarked) [Example 140, 3-(5-(6-amino-4-methylpyridin-2-yl)-1-oxoisoindolin-2-yl)piperidine-2,6-dione] | ≥ 20000 | 20 |

| SMILES | DC50 (Ikaros) [nM] | DC50 (Helios) [nM] |
| --- | --- | --- |
| Cc1cc(-c2ccc3c(c2)CN(C2CCC(=O)NC2=O)C3=O)nc(N)n1 (centres unmarked) [Example 143, 3-(5-(2-amino-6-methylpyrimidin-4-yl)-1-oxoisoindolin-2-yl)piperidine-2,6-dione] | ≥ 20000 | 610 |
| Cc1cc(-c2ccc3c(c2)CN(C2CCC(=O)NC2=O)C3=O)nc(C)c1N (centres unmarked) [Example 119, 3-(5-(5-amino-4,6-dimethylpyridin-2-yl)-1-oxoisoindolin-2-yl)piperidine-2,6-dione] | ≥ 10000 | 240 |
| CC(=O)O[C@H]1CCOc2nc(-c3ccc4c(c3)CN([C@H]3CCC(=O)NC3=O)C4=O)ccc21 [Example 127, (4S)-7-{2-[(3S)-2,6-dioxopiperidin-3-yl]-1-oxo-2,3-dihydro-1H-isoindol-5-yl}-2H,3H,4H-pyrano[2,3-b]pyridin-4-yl acetate] | ≥ 20000 | 7460 |
| O=C1CCC(N2Cc3cc(-c4cc(C(=O)NC5CC5)c5ccccc5n4)ccc3C2=O)C(=O)N1 (centres unmarked) [Example 14, N-cyclopropyl-2-[2-(2,6-dioxopiperidin-3-yl)-1-oxo-2,3-dihydro-1H-isoindol-5-yl]quinoline-4-carboxamide] | > 20000 | 400 |
| O=C1CCC(N2Cc3cc(-c4nccc5ncccc45)ccc3C2=O)C(=O)N1 (centres unmarked) [Example 100, 3-(5-(1,6-naphthyridin-5-yl)-1-oxoisoindolin-2-yl)piperidine-2,6-dione] | ≥ 20000 | 210 |
| COc1cccc(-c2ccc3c(c2)CN(C2CCC(=O)NC2=O)C3=O)n1 (centres unmarked) [Example 155, 3-[5-(6-Methoxypyridin-2-yl)-1-oxo-2,3-dihydro-1H-isoindol-2-yl]piperidine-2,6-dione] | ≥ 20000 | 5330 |
| O=C1CCC(N2Cc3cc(-c4ccccn4)ccc3C2=O)C(=O)N1 (centres unmarked) [Example 109, 3-(1-oxo-5-(pyridin-2-yl)isoindolin-2-yl) piperidine-2,6-dione] | ≥ 10000 | 610 |
| Nc1nc(-c2ccc3c(c2)CN(C2CCC(=O)NC2=O)C3=O)cc2ccccc12 (centres unmarked) [Example 4, 3-[5-(1-aminoisoquinolin-3-yl)-1-oxo-2,3-dihydro-1H-isoindol-2-yl]piperidine-2,6-dione] | > 20000 | 6 |
| Nc1cc(CO)cc(-c2ccc3c(c2)CN(C2CCC(=O)NC2=O)C3=O)n1 (centres unmarked) [Example 112, 3-(5-(6-amino-4-(hydroxymethyl)pyridin-2-yl)-1-oxoisoindolin-2-yl)piperidine-2,6-dione] | ≥ 10000 | 420 |
| Nc1cc(-c2ccc3c(c2)CN(C2CCC(=O)NC2=O)C3=O)nc2ccccc12 (centres unmarked) [Example 8, 3-[5-(4-aminoquinolin-2-yl)-1-oxo-2,3-dihydro-1H-isoindol-2-yl]piperidine-2,6-dione] | > 20000 | 25 |
| O=C1CCC(N2Cc3cc(-c4cc5c(cn4)OCCN5)ccc3C2=O)C(=O)N1 (centres unmarked) [Example 87, 3-(5-(2,3-dihydro-1H-pyrido[3,4-b][1,4]oxazin-7-yl)-1-oxoisoindolin-2-yl)piperidine-2,6-dione] | ≥ 20000 | 100 |
| Nc1nc(-c2ccc3c(c2)CN(C2CCC(=O)NC2=O)C3=O)cc2[nH]ccc(=O)c12 (centres unmarked) [Example 47, 3-[5-(5-Amino-4-oxo-1,4-dihydro-1,6-naphthyridin-7-yl)-1-oxo-2,3-dihydro-1H-isoindol-2-yl]piperidine-2,6-dione] | > 20000 | 220 |
| NC(=O)c1cnc(-c2ccc3c(c2)CN(C2CCC(=O)NC2=O)C3=O)nc1N (centres unmarked) [Example 81, 4-amino-2-[2-(2,6-dioxopiperidin-3-yl)-1-oxo-2,3-dihydro-1H-isoindol-5-yl]pyrimidine-5-carboxamide] | > 20000 | 3900 |
| Nc1nc(-c2ccc3c(c2)CN(C2CCC(=O)NC2=O)C3=O)c2nc[nH]c2n1 (centres unmarked) [Example 43, 3-[5-(2-amino-9H-purin-6-yl)-1-oxo-2,3-dihydro-1H-isoindol-2-yl]piperidine-2,6-dione] | > 20000 | > 20000 |
| N#Cc1cccc(-c2ccc3c(c2)CN(C2CCC(=O)NC2=O)C3=O)n1 (centres unmarked) [Example 162, 6-(2-(2,6-dioxopiperidin-3-yl)-1-oxoisoindolin-5-yl)picolinonitrile] | ≥ 20000 | 2460 |
